Test results reported in patent publication US20250134926A1, “COMPOSITION FOR ANTI-CANCER TREATMENT COMPRISING IMMUNOGENIC TUMOR-DERIVED EXTRACELLULAR VESICLES USING AN ENDOPLASMIC RETICULUM STRESS INDUCER AND METHOD FOR PRODUCING THE SAME” (priority 2023, published 2025).

System: melanoma cell line B16F10
Experiment: MTT cytotoxicity evaluation of pretreatment substances
Type: cell-based, mouse
Settings: for viability of tumor cells: B16F10, 24 hours
Method: To conduct the cytotoxicity evaluation of each pretreatment substance (tunicamycin and metformin) on the melanoma cell line B16F10, 3-(4,5-dimethylthiazol-2-yl)-2,5-diphenyltetrzolium bromide (MTT) assay was performed. First, 10^4 cells were seeded in each 96-well plate and cultured for 24 hours. Then, cells in each well were treated with each substance at a given concentration and cultured for an additional 24 hours. After the supernatant was discarded, the cells were treated with an MTT-containing medium at the concentration of 0.5 mg/ml and left for two hours, and the intracellular formazan crystals were dissolved in each well using dimethylsulfoxide. Then, the cytotoxicity was analyzed by measuring the absorbance at 570 nm by using a microplate reader.

For tunicamycin, the “viability of tumor cells” value (concentrations of 0.05 μM or less) was “no significant decrease”, the “viability of tumor cells” value (concentrations of 0.1 μM or more) was “decrease in cell viability” and the “highest concentration at which no decrease in cell viability was observed” value (B16F10, MTT, 24 hours) was 0.05 µM.
